Results from patent US11028051B2, “Tetrahydroquinoline-based bromodomain inhibitors” (St. Jude Children's Research Hospital, priority 2016, dated 2021).
Like-named read-outs stand apart in the source and are kept apart here.

What was measured:
BRD2-BD1 [1] = molecular target: T1, BRD2-BD1 (Homo sapiens (Human), UniProt P25440); assay: competitive TR-FRET assay, BET-BD with acetylated peptide ligand; format: binding
Experimental: (§1) Inhibitor potency was determined using a competitive TR-FRET assay as detailed herein, measuring interaction of the respective BET-BD with an acetylated peptide ligand (Table 2).
Target sequence in this assay (P25440 74-180): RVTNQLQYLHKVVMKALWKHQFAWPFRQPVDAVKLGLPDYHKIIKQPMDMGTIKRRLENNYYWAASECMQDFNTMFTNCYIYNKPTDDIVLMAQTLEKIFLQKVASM

BRD4-BD1 = BRD4-BD1 (Homo sapiens (Human), UniProt O60885); assay: as above; format: binding
Experimental: as §1

BRDT = BRDT (Homo sapiens, UniProt Q58F21); assay: as above; format: binding; details: read-out: BRDT EC50
Experimental: as §1

BRD4-BD2 = BRD4-BD2 (Homo sapiens (Human), UniProt O60885); assay: as above; format: binding
Experimental: as §1

BRD2-BD2 = BRD2-BD2 (Homo sapiens (Human), UniProt P25440); assay: as above; format: binding; details: for [2(1)/2(2)]: Table 4, ratio of EC50; for 2.1/2.2: ratio of BRD2-BD1 EC50 to BRD2-BD2 EC50 (selectivity)
Experimental: as §1

BRD3-BD1 = BRD3-BD1 (Homo sapiens (Human), UniProt Q15059); assay: as above; format: binding
Experimental: as §1

[2] = test system: c-Myc expression in HDMB03 cells; assay: c-Myc expression inhibition, high content microscopy (HCM); format: cell-based, human; details: Homo sapiens
HDMB03 cells = assay: cell viability, CellTiter-Glo; format: cell-based, human; details: Homo sapiens, HD-MB03, Table 5; read-out: EC50 (μM) HDMB03
Experimental: Human G3 medulloblastoma or mouse SHH medulloblastoma cells were grown as neurospheres in supplemented neurobasal medium, as previously described (Kawauchi et al., 2012.)
After 7 days of treatment, an equal volume of CellTiter-Glo reagent (G7572, Promega) was added and the luminescence signal was measured using an automated Envision plate reader (Perkin-Elmer). Luminescence data were normalized by log10 transformation prior to calculating the percent inhibition using the following equation:
100*(negative control mean −compound value)/(negative control mean −positive control mean).
High-throughput assay data were analyzed using Robust Interpretation of Screening Experiments (RISE) application written in Pipeline Pilot (Accelrys, v. 8.5) and the R program (R Development Core Team).
Dose-response curves were calculated by regressing the median percent inhibition obtained over triplicate experiments to log 10-transformed concentrations. Non-linear regression was then performed using the R drc package with the four parameter log-logistic function (LL2.4) (Ritz and Streibig, 2009). Curves were fit under three different constraints: (1) all parameters free, (2) high response fixed to 100, (3) low response fixed to 0; and the best fit from these three nested models was selected using the anova.drc function.

BRD3(1) = BRD3(1) (Homo sapiens (Human), UniProt Q15059); assay: BROMOscan KD determination; format: binding; details: Table 10
Source text: (§2) DiscoverX® can screen compounds against all ˜42 bromodomains (a service called BROMOscan) and perform follow-up KD determination. This service is considered the industrial standard for bromodomain inhibitor comparisons.

BRD3(2) = BRD3(2) (Homo sapiens (Human), UniProt Q15059); assay: BROMOscan KD determination; format: binding
Source text: as §2

BRD4(1) = BRD4(1) (Homo sapiens (Human), UniProt O60885); assay: BROMOscan KD determination; format: binding; details: Table 10
Source text: as §2

BRD4(2) = BRD4(2) (Homo sapiens (Human), UniProt O60885); assay: BROMOscan KD determination; format: binding
Source text: as §2

BRD2(1) = BRD2(1) (Homo sapiens (Human), UniProt P25440); assay: BROMOscan KD determination; format: binding; details: Table 10
Source text: (§3) DiscoverX® can screen compounds against all ˜42 bromodomains (a service called BROMOscan) and perform follow-up KD determination. This service is considered the industrial standard for bromodomain inhibitor comparisons. […] Dots are symbolic of inhibition of the compound at this concentration; the larger the size of the dot, the greater the activity of the compound. […] Though these compounds are selective for the BET family, the selectivity within the BET family is poor. The results of a competitive binding experiment between compounds 19 (left), 41 (center), and 56 (right) (at a single concentration, 1 μM) and a control for each of the bromodomains are shown in FIG. 5.

BRDT(1) = BRDT(1) (Homo sapiens (Human), UniProt Q58F21); assay: BROMOscan KD determination; format: binding; details: Table 10
Source text: as §3

BRDT(2) = BRDT(2) (Homo sapiens (Human), UniProt Q58F21); assay: BROMOscan KD determination; format: binding
Source text: as §3

BRD2(2) = BRD2(2) (Homo sapiens (Human), UniProt P25440); assay: BROMOscan KD determination; format: binding
Source text: as §3

BRD2-BD1 [3] = molecular target: T1, BRD2-BD1; assay: isothermal titration calorimetry analysis of binding; details: ITC, BRD2-BD1
Experimental: b. Isothermal Titration Calorimetry Analysis of Binding to Brd2-BD1 and Brd2-BD2
Binding of compounds to BRD2 was monitored using an ITC200 (Microcal, Piscataway, N.J.). Either Brd2.1 (74-194) or Brd2.2 (348-455) was dialyzed overnight into a solution containing 50 mM HEPES, pH 7.0 and 150 mM NaCl at 15° C. Enzyme concentrations were determined after dialysis by absorbance at 280 nm using a molar extinction coefficient (ε280) of 25,565 M^−1 cm^−1 (2.1) or 16,055 M^−1 cm^−1 (2.2). Enzyme was diluted in dialysis buffer and 39.6 μL was loaded into the syringe. Compounds were dissolved in the same dialysis buffer and loaded in the cell to a volume of 204 μL. Injections were carried out by serial injections of enzyme; first, 1 injection of 1 μL, followed by 19 incremental injections of 2 μL, at 120 second intervals. Data from the first injection was excluded, due to pre-equilibration mixing between the contents of cell and syringe at the syringe tip. Peak areas were integrated, normalized, and then fitted by non-linear regression using the independent sites model in Origin™ (version 2.3.6, Microcal, Piscataway, N.J.).
Target sequence in this assay (P25440 74-194): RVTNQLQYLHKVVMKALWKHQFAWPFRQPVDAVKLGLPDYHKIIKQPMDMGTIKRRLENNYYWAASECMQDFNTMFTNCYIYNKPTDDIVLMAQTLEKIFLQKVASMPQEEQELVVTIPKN

[4] = Table 4, read-out: EC50 (μM) BRD2(1)
[5] = Table 4, read-out: EC50 (μM) BRD2(2)
[6] = HD-MB03, Table 5, read-out: EC50 (μM) Myc-inhibition
[7] = BRD2-BD1, Table 11 additional modifications, read-out: 2.1 EC50
[8] = BRD4-BD1, Table 11 additional modifications, read-out: 4.1 EC50
[9] = BRDT, Table 11 additional modifications
[10] = BRD4-BD2, Table 11 additional modifications, read-out: 4.2 EC50
[11] = BRD2-BD2, Table 11 additional modifications, read-out: 2.2 EC50
[12] = BRD3-BD1, Table 11 additional modifications, read-out: 3.1 EC50
[13] = Table 2, inhibitor potency by TR-FRET

Sequence of BRD3-BD1 (Q15059 34-140): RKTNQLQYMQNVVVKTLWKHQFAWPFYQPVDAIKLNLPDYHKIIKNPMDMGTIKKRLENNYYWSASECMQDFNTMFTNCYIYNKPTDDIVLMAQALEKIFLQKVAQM
Sequence of BRD2-BD2 (P25440 344-453): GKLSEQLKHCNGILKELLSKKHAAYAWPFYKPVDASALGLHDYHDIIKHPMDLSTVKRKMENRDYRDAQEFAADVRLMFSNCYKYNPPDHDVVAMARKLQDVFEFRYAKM
Sequence of BRD2(2) (P25440 344-453): as above
Sequence of BRD3(2) (Q15059 306-415): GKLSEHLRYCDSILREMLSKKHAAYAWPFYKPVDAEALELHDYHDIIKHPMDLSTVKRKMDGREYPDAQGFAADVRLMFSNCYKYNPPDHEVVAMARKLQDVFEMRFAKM
Sequence of BRD3(1) (Q15059 34-140): as the sequence (Q15059 34-140) above
Sequence of BRD2(1) (P25440 74-180): as the sequence (P25440 74-180) above

Row | SMILES | EC50 (BRD2-BD1 [1]; [7]) [µM] | EC50 (BRD4-BD1; [8]) [µM] | EC50 (BRDT; [9]) [µM] | EC50 (BRD4-BD2; [10]) [µM] | EC50 (BRD2-BD2; [11]) [µM] | 2.1/2.2 (BRD2-BD2) | EC50 (BRD3-BD1; [12]) [µM] | other results
1 | CC(=O)Nc1cccc(-c2ccc3c(c2)[C@H](Nc2ccc(F)cc2)C[C@H](C)N3C(C)=O)c1 [compound 39] |  |  |  |  |  |  |  | EC50 (BRD2-BD1 [1]; [4]): 5.6 µM; EC50 (BRD4-BD1; Table 4, read-out: EC50 (μM) BRD4(1)): 5.7 µM; EC50 (BRDT; Table 4): 10 µM; 4(1)/4(2) (BRD4-BD2; Table 4, ratio of EC50): 63; EC50 (BRD4-BD2; Table 4, read-out: EC50 (μM) BRD4(2)): 0.09 µM; [2(1)/2(2)] (BRD2-BD2): 51; EC50 (BRD2-BD2; [5]): 0.11 µM; EC50 (BRD3-BD1; Table 4, read-out: BRD3(1)): 2.7 µM; EC50 [2, 6]: 0.04 µM; EC50 (HDMB03 cells): 1.68 µM
2 | COc1cccc(N[C@@H]2C[C@H](C)N(C(C)=O)c3ccc(-c4cccc(NC(C)=O)c4)cc32)c1 [compound 21] | 0.93 | 1.5 | 1.8 | 0.04 | 0.03 | 31 | 0.59 | 
3 | CC(=O)Nc1cccc(-c2ccc3c(c2)[C@H](NC2CCOCC2)C[C@H](C)N3C(C)=O)c1 [compound 36] | 3.2 | 2.4 | 7 | 5.4 | 3 | 1.1 | 1.4 | 
4 | COc1cc(F)ccc1N[C@@H]1C[C@H](C)N(C(C)=O)c2ccc(-c3cccc(NC(C)=O)c3)cc21 [compound 42] |  |  |  |  |  |  |  | EC50 (BRD2-BD1 [1]; [4]): 13 µM; EC50 (BRDT; Table 4): > 14 µM; [2(1)/2(2)] (BRD2-BD2): >100; EC50 (BRD2-BD2; [5]): 0.14 µM; EC50 (BRD3-BD1; Table 4, read-out: BRD3(1)): > 14 µM; EC50 [2, 6]: > 10 µM; EC50 (HDMB03 cells): 0.76 µM
5 | CCCOc1cccc(-c2ccc3c(c2)[C@H](Nc2ccc(C(=O)OC)cc2)C[C@H](C)N3C(C)=O)c1 [compound 56] | 8.2 | > 63 | 12 |  | 0.5 | 16 | 8.1 | Kd (BRD3(1)): 0.099 µM; 3(1)/3(2) (BRD3(2); BROMOscan KD ratio): 23.0; Kd (BRD3(2); BROMOscan, Table 10): 0.0043 µM; Kd (BRD4(1)): 0.14 µM; 4(1)/4(2) (BRD4(2); BROMOscan KD ratio): 31.8; Kd (BRD4(2); BROMOscan, Table 10): 0.0044 µM; Kd (BRD2(1)): 0.16 µM; Kd (BRDT(1)): 0.095 µM; T(1)/T(2) (BRDT(2); BROMOscan KD ratio): 4.1; Kd (BRDT(2); BROMOscan, Table 10): 0.023 µM; [2(1)/2(2)] (BRD2(2); BROMOscan KD ratio): 19.5; Kd (BRD2(2); BROMOscan, Table 10): 0.0082 µM
6 | CC(=O)Nc1cccc(-c2ccc3c(c2)[C@H](Nc2cccc(OC(F)(F)F)c2)C[C@H](C)N3C(C)=O)c1 [compound 22] | 26 | 27 | 10 | 1.9 | 0.79 | 33 | 10 | 
7 | CC(=O)N1c2ccc(-c3cc4ccccc4[nH]3)cc2[C@H](NC(=O)OC(C)C)C[C@@H]1C [compound 92] | 1.7 | 1.3 | 3 | 1.3 | 1.4 | 5.1 | 0.41 | 
8 | CC(=O)Nc1cccc(-c2ccc3c(c2)[C@H](Nc2ccc(N(C)C)cc2)C[C@H](C)N3C(C)=O)c1 [compound 118] | 3.6 | 5.1 | 1.6 | 0.21 | 0.11 | 10 | 2.1 | 
9 | CC(=O)N1c2ccc(-c3ccco3)cc2[C@H](NC(=O)OC(C)C)C[C@@H]1C [compound 50] |  |  |  |  |  |  |  | IC50 (BRD4-BD1; [13]): 4.6 µM; IC50 (BRD4-BD2; [13]): 2.6 µM; EC50 ([2]; HD-MB03, HDMB03 cells, read-out: c-Myc expression EC50): 0.33 µM; ΔG (BRD2-BD1 [3]): -7.47 kcal/mol; −TΔS (BRD2-BD1 [3]): -0.20 kcal/mol
